According to patent publication US10925855B2, “Compositions comprising water dispersible nanoparticles of a retinoid compound” (GALDERMA RESEARCH & DEVELOPMENT, priority 2015, dated 2021):
In brackets after ≈: the same amount, converted by molar mass.

Experiments:
[1] = Solvent screening (solubility of compound A); assay type: physicochemical; conditions: for solubility: thermodynamic from solid, Sonication
Description: 10-20 mg of 3″-tert-butyl-4′-(2-hydroxyethoxy)-4″-pyrrolidin-1-yl[1,1′;3′,1″]-terphenyl-4-carboxylic acid (hereinafter “compound A”) was placed into a 30 ml vial. 200 μl of the selected solvent was added and the vial was stirred by magnetic stirring. • If the compound A was not dissolved, the vial was placed into ultrasonic bath with mild heating. • If the compound A was still not dissolved, further 200 μl of the solvent was added to the vial and the magnetic stirring and ultrasonication were repeated.
The whole procedure (addition of the solvent, stirring, ultrasonication, heating) was repeated stepwise until every compound A particles was dissolved and a clear, translucent liquid was obtained.

[2] = Stabilizer screening (colloid stability after precipitation); assay type: physicochemical; conditions: Compound A 1.0 mg
Description: If the colloid solution was stable over 2 hours (no aggregation, sedimentation, crystal forming), and no aggregation occurred, the sample was lyophilized. • If precipitation occurred, however the colloid solution was not stable over the whole solid formulation procedure, other stabilizers were tested. Results

CC(C)(C)c1cc(-c2cc(-c3ccc(C(=O)O)cc3)ccc2OCCO)ccc1N1CCCC1 [Compound A, 3″-tert-butyl-4′-(2-hydroxyethoxy)-4″-pyrrolidin-1-yl[1,1′;3′,1″]-terphenyl-4-carboxylic acid]
solubility profile (in words) ([1]; acetone): slightly soluble
solubility profile (in words) ([1]; acetonitrile): very slightly soluble
solubility profile (in words) ([1]; ethanol): slightly soluble
solubility profile (in words) ([1]; isopropanol): slightly soluble
solubility profile (in words) ([1]; methanol): slightly soluble
solubility ([1]; organic solvent or mixture, Acetone, RT): 3000 µg/mL (≈ 6.53 mM)
solubility ([1]; organic solvent or mixture, Acetonitrile, RT): 400 µg/mL (≈ 0.87 mM)
solubility ([1]; organic solvent or mixture, Ethanol, RT): 4900 µg/mL (≈ 10.7 mM)
solubility ([1]; organic solvent or mixture, Isopropanol, RT): 3000 µg/mL (≈ 6.53 mM)
solubility ([1]; organic solvent or mixture, Methanol, RT): 1700 µg/mL (≈ 3.7 mM)
solubility ([1]; organic solvent or mixture, Pyridine, RT): 34500 µg/mL (≈ 75.1 mM)
solubility ([1]; organic solvent or mixture, Tetrahydrofuran, RT): 30500 µg/mL (≈ 66.4 mM)
solubility profile (in words) ([1]; pyridine): soluble
solubility profile (in words) ([1]; tetrahydrofuran): soluble
solubility ([1]; Water, T = 45° C.): < 50 µg/mL
solubility profile (in words) ([1]; water): practically insoluble
Observation ([2]; 2 mg Klucel EF, 1 mL EtOH, 4 mL water): Aggregated
Observation ([2]; 2 mg Klucel EF, 1 mL IPA, 4 mL water): Aggregated
Observation ([2]; 2 mg Klucel EF, 1 mL MeOH, 4 mL water): Aggregated
Observation ([2]; 2 mg Klucel EF, 1 mL THF, 4 mL water): Aggregated
Observation ([2]; 2 mg Klucel LF, 1 mL EtOH, 4 mL water): Aggregated
Observation ([2]; 2 mg Klucel LF, 1 mL IPA, 4 mL water): Aggregated
Observation ([2]; 2 mg Klucel LF, 1 mL MeOH, 4 mL water): Aggregated
Observation ([2]; 2 mg Klucel LF, 1 mL THF, 4 mL water): Aggregated
Observation ([2]; 2 mg Lutrol F 127, 1 mL ACE, 4 mL water): Aggregated immediately
Observation ([2]; 2 mg Lutrol F 127, 1 mL EtOH, 4 mL water): Aggregated
Observation ([2]; 2 mg Lutrol F 127, 1 mL MeOH, 4 mL water): Cloudy immediately
Observation ([2]; 2 mg Lutrol F 127, 1 mL THF, 5 mL water): Aggregated
Observation: Aggregated within ([2]; 2 mg Luviskol VA64, 1 mL ACE, 4 mL water): Aggregated within 5 min
Observation: Colloid, Stable for ([2]; 2 mg Luviskol VA64, 1 mL EtOH, 4 mL water): Colloid, Stable for 30 min
Observation ([2]; 2 mg Luviskol VA64, 1 mL EtOH, 7 mL 0.05 mg/mL BAC solution): Aggregated immediately
Observation ([2]; 2 mg Luviskol VA64, 1 mL EtOH, 7 mL 0.05 mg/mL DSS solution): Aggregated immediately
Observation ([2]; 2 mg Luviskol VA64, 1 mL EtOH, 7 mL 0.05 mg/mL Mannitol solution): Aggregated immediately
Observation ([2]; 2 mg Luviskol VA64, 1 mL EtOH, 7 mL 0.05 mg/mL NaOAc solution): Aggregated immediately
Observation ([2]; 2 mg Luviskol VA64, 1 mL EtOH, 7 mL 0.05 mg/mL SDS solution): Aggregated immediately
Observation ([2]; 2 mg Luviskol VA64, 1 mL EtOH, 7 mL 0.05 mg/mL citric acid solution): Aggregated immediately
Observation ([2]; 2 mg Luviskol VA64, 1 mL EtOH, 7 mL 0.5 mg/mL BAC solution): Aggregated immediately
Observation: Aggregated within ([2]; 2 mg Luviskol VA64, 1 mL EtOH, 7 mL 0.5 mg/mL DSS solution): Aggregated within 1 hour
Observation ([2]; 2 mg Luviskol VA64, 1 mL EtOH, 7 mL 0.5 mg/mL Mannitol solution): Aggregated immediately
Observation: Stable for ([2]; 2 mg Luviskol VA64, 1 mL EtOH, 7 mL 0.5 mg/mL NaOAc solution, at RT): Stable for 1 day at RT
Observation: Aggregated within ([2]; 2 mg Luviskol VA64, 1 mL EtOH, 7 mL 0.5 mg/mL SDS solution): Aggregated within 1 hour
Observation ([2]; 2 mg Luviskol VA64, 1 mL EtOH, 7 mL 0.5 mg/mL citric acid solution): Aggregated immediately
Observation ([2]; 2 mg Luviskol VA64, 1 mL IPA, 4 mL water): Aggregated
Observation: Aggregated after ([2]; 2 mg Luviskol VA64, 1 mL MeOH, 4 mL water): Aggregated after 25 min
Observation ([2]; 2 mg Luviskol VA64, 1 mL THF, 4 mL water): Aggregated
Observation ([2]; 2 mg PEG2000, 1 mL ACE, 4 mL water): Aggregated immediately
Observation ([2]; 2 mg PEG2000, 1 mL EtOH, 4 mL water): Aggregated
Observation ([2]; 2 mg PEG2000, 1 mL IPA, 4 mL water): Aggregated
Observation ([2]; 2 mg PEG2000, 1 mL MeOH, 4 mL water): Aggregated
Observation ([2]; 2 mg PEG2000, 1 mL THF, 4 mL water): Aggregated
Observation ([2]; 2 mg PEG6000, 1 mL ACE, 4 mL water): Aggregated immediately
Observation ([2]; 2 mg PEG6000, 1 mL EtOH, 4 mL water): Aggregated
Observation ([2]; 2 mg PEG6000, 1 mL MeOH, 4 mL water): Aggregated
Observation: Aggregated within ([2]; 2 mg PEOX50, 1 mL ACE, 4 mL water): Aggregated within 5 min
Observation: Colloid, Stable for ([2]; 2 mg PEOX50, 1 mL EtOH, 4 mL water): Colloid, Stable for 10 min
Observation: Aggregated within ([2]; 2 mg PEOX50, 1 mL EtOH, 7 mL 0.5 mg/mL DSS solution): Aggregated within 1 hour
Observation: Aggregated within ([2]; 2 mg PEOX50, 1 mL EtOH, 7 mL 0.5 mg/mL NaOAc solution): Aggregated within 1 hour
Observation: Aggregated within ([2]; 2 mg PEOX50, 1 mL EtOH, 7 mL 0.5 mg/mL SDS solution): Aggregated within 1 hour
Observation ([2]; 2 mg PEOX50, 1 mL EtOH, 7 mL 0.5 mg/mL citric acid solution): Aggregated immediately
Observation ([2]; 2 mg PEOX50, 1 mL IPA, 4 mL water): Aggregated
Observation ([2]; 2 mg PEOX50, 1 mL MeOH, 4 mL water): Aggregated
Observation ([2]; 2 mg PEOX50, 1 mL THF, 4 mL water): Aggregated
Observation: Aggregated within ([2]; 2 mg PEOX500, 1 mL ACE, 4 mL water): Aggregated within 5 min
Observation ([2]; 2 mg PEOX500, 1 mL EtOH, 4 mL water): Aggregated
Observation ([2]; 2 mg PEOX500, 1 mL IPA, 4 mL water): Aggregated
Observation ([2]; 2 mg PEOX500, 1 mL MeOH, 4 mL water): Aggregated
Observation ([2]; 2 mg PEOX500, 1 mL THF, 4 mL water): Aggregated
Observation ([2]; 2 mg PMAMVE, 1 mL EtOH, 4 mL water): Aggregated
Observation ([2]; 2 mg PMAMVE, 1 mL MeOH, 4 mL water): Aggregated
Observation: Colloid, Stable for ([2]; 2 mg PVP10, 1 mL EtOH, 4 mL water): Colloid, Stable for 30 min
Observation ([2]; 2 mg PVP10, 1 mL EtOH, 7 mL 0.05 mg/mL BAC solution): Aggregated immediately
Observation ([2]; 2 mg PVP10, 1 mL EtOH, 7 mL 0.05 mg/mL DSS solution): Aggregated immediately
Observation ([2]; 2 mg PVP10, 1 mL EtOH, 7 mL 0.05 mg/mL Mannitol solution): Aggregated immediately
Observation ([2]; 2 mg PVP10, 1 mL EtOH, 7 mL 0.05 mg/mL NaOAc solution): Aggregated immediately
Observation ([2]; 2 mg PVP10, 1 mL EtOH, 7 mL 0.05 mg/mL SDS solution): Aggregated immediately
Observation ([2]; 2 mg PVP10, 1 mL EtOH, 7 mL 0.05 mg/mL citric acid solution): Aggregated immediately
